A word on the IC50: it is the midpoint of a concentration-inhibition curve.

The source of these data is US12371454B2, “Cyclic peptide compound having Kras inhibitory action” (priority 2019, dated 2025).

Molecules are shown by their SMILES. Starred links: 1 amine or outer side, 2 acyl side, 3 side chain; linkers in the order of their positions; H or OH if unused. Positions of bridges follow the written chain, without caps; N, C: chain ends. Non-standard residues stand in square brackets, D forms with d. Residues, ends and D or L forms follow the SMILES beside them. *: point of attachment. hPhe(3-Cl-4-CF3) = N[C@@H](CCc1ccc(C(F)(F)F)c(Cl)c1)C(=O)O; NMePhe(4-Cl) = CN[C@@H](Cc1ccc(Cl)cc1)C(=O)O; X4 = O=C([C@H](Cc1cc(F)cc(Cl)c1)N[*:1])[*:2]; NMePhe(4-F) = CN[C@@H](Cc1ccc(F)cc1)C(=O)O; Abu(4,4,4-F3) = N[C@@H](CC(F)(F)F)C(=O)O; Phe(3-Cl) = N[C@@H](Cc1cccc(Cl)c1)C(=O)O; NMeGly(cPent) = CN[C@H](C(=O)O)C1CCCC1; NMeCha = CN[C@@H](CC1CCCCC1)C(=O)O; Azetidine(3,3-F2) = FC1(F)CN(*)C1; NMeF = CN[C@@H](Cc1ccccc1)C(=O)O; N(CH2CH2)2CF2 = FC1(F)CCN(*)CC1; NMeD = CN[C@@H](CC(=O)O)C(=O)O; NMeL = CN[C@@H](CC(C)C)C(=O)O; NMeV = CN[C@H](C(=O)O)C(C)C; Trifluoroethyl = FC(F)(F)C*; d(β3hA) = C[C@@H](N)CC(=O)O; NMeS = CN[C@@H](CO)C(=O)O; Pip = O=C(O)[C@@H]1CCCCN1; NMeA = CN[C@@H](C)C(=O)O; NMeAib = CNC(C)(C)C(=O)O; Nle = CCCC[C@H](N)C(=O)O; Piperidide = C1CCN(*)CC1; Pyrrolidide = C1CCN(*)C1; dNMeA = CN[C@H](C)C(=O)O; Ac5c = NC1(C(=O)O)CCCC1; Aze = O=C(O)[C@@H]1CCN1; NcPrGly = O=C(O)CNC1CC1; NEtG = CCNCC(=O)O; Sar = CNCC(=O)O

This test deals with T1, Kras and SOS1 (biotin-tagged human Kras loaded with GDP, His-tagged human SOS1) (Homo sapiens, UniProt P01116, G12D).
T1 construct: made in house; host or cells: E. coli (stated for Kras only)
T1 sequence (P01116 1-188 isoform P01116-2 G12D): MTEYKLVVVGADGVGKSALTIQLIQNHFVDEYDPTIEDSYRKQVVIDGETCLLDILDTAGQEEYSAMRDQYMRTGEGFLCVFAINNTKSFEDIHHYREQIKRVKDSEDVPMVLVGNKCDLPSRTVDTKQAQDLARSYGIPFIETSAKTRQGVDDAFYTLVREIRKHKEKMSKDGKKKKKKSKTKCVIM
The test can be described thus: Protein-protein interaction inhibition between Kras and SOS1 (KrasGl2D-SOS PPI) using AlphaScreen. To be noted: AlphaScreen; biotin-tagged human Kras loaded with GDP, His-tagged human SOS1; read-out: KRAS G12D-SOS PPI IC50. It is filed as binding. Summed up: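 Energy transfer from nickel-chelate donor beads bound to His-SOS1 to streptavidin acceptor beads bound to biotin-Kras, expressed in E. coli and loaded with GDP after purification, was monitored. Donors were excited at 680 nm; singlet oxygen reaching acceptors gave emission read at 520-620 nm.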
For orientation: In Alpha technology, singlet oxygen from a donor bead excites a nearby acceptor bead.

Take `CCCC[C@@H]1NC(=O)[C@H](Cc2cc(F)cc(Cl)c2)NC(=O)CN(C)C(=O)[C@H](Cc2ccc(Cl)cc2)N(C)C(=O)CN(C)C(=O)CN(C)C(=O)[C@H]([C@@H](C)CC)NC(=O)[C@H](CC(C)C)N(C)C(=O)C[C@@H](C(=O)N2CCCCC2)N(C)C(=O)[C@H](CC(C)C)NC(=O)C(C)(C)N(C)C1=O` [Compound 202] ([NMeL]I[Sar][Sar][NMePhe(4-Cl)][Sar][X4][Nle][NMeAib]L[NMeD]-Piperidide; lactam N-11): the 50% inhibitory concentration (IC50) is 39 nM. Turning to `CC[C@H](C)[C@@H]1NC(=O)[C@H](CC(C)C)N(C)C(=O)C[C@@H](C)NC(=O)[C@H](C(C)C)N(C)C(=O)C2(CCCC2)NC(=O)[C@@H]2CCCN2C(=O)[C@H](CCc2ccc(C(F)(F)F)c(Cl)c2)NC(=O)CN(C2CC2)C(=O)[C@H](CC2CCCCC2)N(C)C(=O)CN(C)C(=O)CN(C)C1=O` [Compound 204] (cyclo([Ac5c][NMeV][d(β3hA)][NMeL]I[Sar][Sar][NMeCha][NcPrGly][hPhe(3-Cl-4-CF3)]P)), the IC50 amounted to 180 nM. In the case of `CC[C@H](C)[C@@H]1NC(=O)[C@H](C)N(C)C(=O)C[C@@H](C)NC(=O)[C@H](C2CCCC2)N(C)C(=O)C2(CCCC2)NC(=O)[C@@H]2CCCN2C(=O)[C@H](CCc2ccc(C(F)(F)F)c(Cl)c2)NC(=O)[C@@H](C)N(C)C(=O)[C@H](Cc2ccc(F)cc2)N(C)C(=O)CN(C)C(=O)CN(C)C1=O` [Compound 206] (cyclo([Ac5c][NMeGly(cPent)][d(β3hA)][NMeA]I[Sar][Sar][NMePhe(4-F)][dNMeA][hPhe(3-Cl-4-CF3)]P)), the IC50 turned out to be 110 nM. Next, `CC[C@H](C)[C@@H]1NC(=O)[C@H](CC(C)C)N(C)C(=O)C[C@@H](C(=O)N2CCCCC2)N(C)C(=O)[C@H](COCC(F)(F)F)N(C)C(=O)C2(CCCC2)NC(=O)[C@@H]2CCCN2C(=O)[C@H](CCc2ccc(C(F)(F)F)c(Cl)c2)NC(=O)CN(C)C(=O)[C@H](CC2CCCCC2)N(C)C(=O)CN(C)C(=O)CN(C)C1=O` [Compound 208] ([NMeL]I[Sar][Sar][NMeCha][Sar][hPhe(3-Cl-4-CF3)]P[Ac5c][NMeS](Trifluoroethyl)[NMeD]-Piperidide; lactam N-11): 120 nM; `CC[C@H](C)[C@@H]1NC(=O)[C@H](CC(C)C)N(C)C(=O)C[C@@H](C)NC(=O)[C@H](C(C)C)N(C)C(=O)C2(CCCC2)NC(=O)[C@@H]2CCCN2C(=O)[C@H](CCc2ccc(C(F)(F)F)c(Cl)c2)NC(=O)CN(C)C(=O)[C@H](CC2CCCCC2)N(C)C(=O)CN(C)C(=O)CN(CC)C1=O` [Compound 210] (cyclo([Ac5c][NMeV][d(β3hA)][NMeL]I[NEtG][Sar][NMeCha][Sar][hPhe(3-Cl-4-CF3)]P)): 80 nM; `CC[C@H](C)[C@@H]1NC(=O)[C@@H]2CCCCN2C(=O)C[C@@H](C)NC(=O)[C@H](CC(C)C)N(C)C(=O)C2(CCCC2)NC(=O)[C@H](CC(C)C)N(C)C(=O)[C@H](CCc2ccc(C(F)(F)F)c(Cl)c2)NC(=O)CN(C)C(=O)[C@H](CC2CCCCC2)N(C)C(=O)CN(C)C(=O)CN(C)C1=O` [Compound 213] (cyclo([Ac5c][NMeL][d(β3hA)][Pip]I[Sar][Sar][NMeCha][Sar][hPhe(3-Cl-4-CF3)][NMeL])): 48 nM. For `CC[C@H](C)[C@@H]1NC(=O)[C@H](CC(C)C)N(C)C(=O)C[C@@H](C(=O)N(C)C)N(C)C(=O)[C@H](C(C)C)N(C)C(=O)C2(CCCC2)NC(=O)[C@H](CC(=O)N2CCC(F)(F)CC2)N(C)C(=O)[C@H](CCc2ccc(C(F)(F)F)c(Cl)c2)NC(=O)CN(C)C(=O)[C@H](CC2CCCCC2)N(C)C(=O)CN(C)C(=O)CN(C)C1=O` [Compound 218] ([NMeL]I[Sar][Sar][NMeCha][Sar][hPhe(3-Cl-4-CF3)][NMeD](N(CH2CH2)2CF2)[Ac5c][NMeV][NMeD]-NMe2; lactam N-11), the IC50 came to 1.9 nM.

`CC[C@H](C)[C@@H]1NC(=O)[C@H](CC(C)C)N(C)C(=O)C[C@@H](C(=O)N(C)C)N(C)C(=O)[C@H](C2CCCC2)N(C)C(=O)[C@H](CC(F)(F)F)NC(=O)[C@H](CC(=O)N2CC(F)(F)C2)N(C)C(=O)[C@H](CCc2ccc(C(F)(F)F)c(Cl)c2)NC(=O)CN(C)C(=O)[C@H](CC2CCCCC2)N(C)C(=O)[C@@H]2CCN2C(=O)[C@H](C)N(C)C1=O` [Compound 222] ([NMeL]I[NMeA][Aze][NMeCha][Sar][hPhe(3-Cl-4-CF3)][NMeD](Azetidine(3,3-F2))[Abu(4,4,4-F3)][NMeGly(cPent)][NMeD]-NMe2; lactam N-11): the IC50 is 20 nM. For `CC[C@H](C)[C@@H]1NC(=O)[C@H](C)N(C)C(=O)C[C@@H](C(=O)N2CCCC2)NC(=O)[C@H](C(C)C)N(C)C(=O)[C@H](Cc2ccccc2)N(C)C(=O)[C@H](Cc2ccccc2)NC(=O)[C@H](Cc2cccc(Cl)c2)NC(=O)CN(C)C(=O)[C@H](Cc2ccc(Cl)cc2)N(C)C(=O)CN(C)C(=O)CN(CC)C1=O` [Compound 224] ([NMeA]I[NEtG][Sar][NMePhe(4-Cl)][Sar][Phe(3-Cl)]F[NMeF][NMeV]D-Pyrrolidide; lactam N-11), the IC50 is 230 nM.
